Source: patent publication US20190390161A1, “CULTURE MEDIUM COMPRISING OLIGOPEPTIDES” (Evonik Degussa GmbH, priority 2017, published 2019)
Each block holds one molecule with its values, some of them ahead of it. Peptide text beside a SMILES is read from it.

Columns and labels:
[1] = cited from earlier work; for Solubility Xxx: free amino acid, CRC Handbook of Chemistry and Physics; for solubility: prior art values, background
[2] = Solubility found for Lys-Xxx dipeptides; conditions: as hydrochloride or as acetate (footnotes 6, 7)
[3] = system: antibody producing Chinese Hamster Ovary (CHO) cells (Subclone DG44); assay: Experiment 3: cell growth (VCD) in TC-42 media, L-valine or L-isoleucine replaced by lysyl dipeptides; format: cell-based; set-up: Viable cell densities (VCD) / maximum cell densities (max VCD): unit: 10^6 cells/ml; conditions: for maximum cell densities (max VCD) / Viable cell densities (VCD): TC-42 media of table 6; for growth curve and maximum cell density compared with reference medium (FIG. 3): equimolar amounts
From the text: (§1) The influence of the L-lysine dipeptides on the growth of antibody producing Chinese Hamster Ovary (CHO) cells (Subclone DG44; Life Technologies Cooperation, Carslbad, USA) in comparison to media containing either the corresponding free amino acids or the corresponding L-alanine dipeptides was investigated. For this purpose, the cells were cultivated in a TC-42 media produced by Xell AG, Bielefeld, Germany in which the amino acids provided within the experiments by dipeptides were lacking. The concentrations of these amino acids were adjusted in such a way that, taking into account a complete hydrolysis of the dipeptides into the amino acids, the concentration of all amino acids were the same in all media tested within this experiment.
(§2) Starting from a preparatory culture an initial viable cell density (VCD) of 0.3·10^6 cells/ml was adjusted in shaking flasks by adding the test media. After 2-4 days a part of the cell culture was transferred into a new shaking flask and an initial viable cell density (VCD) of 0.3.10^6 cells/ml was adjusted by adding new test media. This was done two times and then the cell growth was followed by measuring the viable cell density (VCD) for up to 24 days.
Experiment 3: Comparison of the Cell Growths obtained with TC-42 media in which L-valine and L-isoleucine, respectively, are replaced by L-lysyl-L-valine and L-lysyl-L-isoleucine, respectively.
For this experiment a TC-42 media produced by Xell AG, Bielefeld, Germany in which L-lysine, L-valine and L-isoleucine were lacking was used. These amino acids and the dipeptides L-lysyl-L-valine and L-lysyl-L-isoleucine, respectively, were then added to the test media in the concentration listed in table 6.

[4] = system: antibody producing Chinese Hamster Ovary (CHO) cells (Subclone DG44); assay: Experiment 1: cell growth (VCD) in TC-42 media, cysteine/cystine or leucine replaced by dipeptides; format: cell-based; set-up: Viable cell densities (VCD) / maximum cell densities (max. VCD): unit not given here
From the text: as §1, with “experiment. […] Experiment 1: Comparison of the Cell Growths Obtained with TC-42 media in which L-cysteine/L-cystine is replaced by bis-L-alanyl-L-cystine, bis-L-prolyl-L-cystine or bis-L-lysyl-L-cystine and L-leucine is replaced by […] For this experiment a TC-42 media produced by Xell AG, Bielefeld, Germany in which […]-cystine and L-leucine were deliberately left out of the initial formulation. […] [table]” for “experiment.”

[5] = system: antibody producing Chinese Hamster Ovary (CHO) cells (Subclone DG44); assay: Experiment 2: cell growth (VCD) in TC-42 media, L-tyrosine replaced by dipeptides; format: cell-based; set-up: key to Viable cell densities (VCD) / maximum cell densities (max VCD): 10^6 cells/ml
From the text: as §1, §2
These amino acids and the dipeptides L-alanyl-L-tyrosine dihydrate and L-lysyl-L-tyrosine acetate, respectively, were then added to the test media in the concentration listed in table 4.

Molecule: N[C@@H](CSSC[C@H](N)C(=O)O)C(=O)O [L-Cystine]
Solubility Xxx [1]: 0.1 g/1000 g solution
solubility [1]: 0.1 g/ltr

Molecule: CC[C@H](C)[C@H](N)C(=O)O [L-Isoleucine]
Solubility Xxx [1]: 39.6 g/1000 g solution

Molecule: CC(C)C[C@H](N)C(=O)O [L-Leucine]
Solubility Xxx [1]: 23.7 g/1000 g solution

Molecule: CC(C)[C@H](N)C(=O)O [L-Valine]
Solubility Xxx [1]: 81.3 g/1000 g solution

Solubility Lys-Xxx found [2]: >500 ^7) g/1000 g solution
Molecule: CC[C@H](C)[C@H](NC(=O)[C@@H](N)CCCCN)C(=O)O [Lys-Ile, L-Lysyl-L-isoleucine]
maximum cell densities (max VCD) [3]: 10.67
Viable cell densities (VCD) ([3]; Time 0.0): 0.44
Viable cell densities (VCD) ([3]; Time 2.8): 1.78
Viable cell densities (VCD) ([3]; Time 3.0): 0.48
Viable cell densities (VCD) ([3]; Time 6.8): 3.36
Viable cell densities (VCD) ([3]; Time 6.9): 0.39
Viable cell densities (VCD) ([3]; Time 7.9): 0.60
Viable cell densities (VCD) ([3]; Time 8.8): 1.04
Viable cell densities (VCD) ([3]; Time 9.8): 1.73
Viable cell densities (VCD) ([3]; Time 10.8): 2.73
Viable cell densities (VCD) ([3]; Time 11.8): 4.62
Viable cell densities (VCD) ([3]; Time 12.9): 5.77
Viable cell densities (VCD) ([3]; Time 13.8): 7.19
Viable cell densities (VCD) ([3]; Time 14.8): 9.27
Viable cell densities (VCD) ([3]; Time 15.9): 9.45
Viable cell densities (VCD) ([3]; Time 16.9): 9.40
Viable cell densities (VCD) ([3]; Time 17.9): 10.56
Viable cell densities (VCD) ([3]; Time 18.8): 10.67
Viable cell densities (VCD) ([3]; Time 19.8): 9.18
Viable cell densities (VCD) ([3]; Time 21.0): 8.77
growth curve and maximum cell density compared with reference medium (FIG. 3) [3]: a slower growth and a lower maximum cell density

Solubility Lys-Xxx found [2]: >330 ^7) g/1000 g solution
Molecule: NCCCC[C@H](N)C(=O)N[C@@H](Cc1ccc(O)cc1)C(=O)O [Lys-Tyr, L-Lysyl-L-tyrosine acetate]

Solubility Lys-Xxx found [2]: >400 ^6) g/1000 g solution
Molecule: CC(C)[C@H](NC(=O)[C@@H](N)CCCCN)C(=O)O [Lys-Val, L-Lysyl-L-valine] (H-Lys-Val-OH)
maximum cell densities (max VCD) [3]: 17.25
Viable cell densities (VCD) ([3]; Time 0.0): 0.43
Viable cell densities (VCD) ([3]; Time 2.8): 2.04
Viable cell densities (VCD) ([3]; Time 3.0): 0.50
Viable cell densities (VCD) ([3]; Time 6.8): 4.37
Viable cell densities (VCD) ([3]; Time 6.9): 0.39
Viable cell densities (VCD) ([3]; Time 7.9): 0.61
Viable cell densities (VCD) ([3]; Time 8.8): 1.15
Viable cell densities (VCD) ([3]; Time 9.8): 2.07
Viable cell densities (VCD) ([3]; Time 10.8): 3.35
Viable cell densities (VCD) ([3]; Time 11.8): 5.79
Viable cell densities (VCD) ([3]; Time 12.9): 8.34
Viable cell densities (VCD) ([3]; Time 13.8): 11.08
Viable cell densities (VCD) ([3]; Time 14.8): 15.45
Viable cell densities (VCD) ([3]; Time 15.9): 16.84
Viable cell densities (VCD) ([3]; Time 16.9): 17.25
Viable cell densities (VCD) ([3]; Time 17.9): 16.27
Viable cell densities (VCD) ([3]; Time 18.8): 14.62
growth curve and maximum cell density compared with reference medium (FIG. 3) [3]: almost matching those of the reference medium

Molecule: Bis-L-prolyl-L-cystine [Pro2-Cyss, reference compound]
maximum cell densities (max. VCD) ([4]; TC-42 media of table 2): 0.79
Viable cell densities (VCD) ([4]; Time 0.0, TC-42 media of table 2): 0.31
Viable cell densities (VCD) ([4]; Time 0.7, TC-42 media of table 2): 0.37
Viable cell densities (VCD) ([4]; Time 2.0, TC-42 media of table 2): 0.32
Viable cell densities (VCD) ([4]; Time 2.7, TC-42 media of table 2): 0.21
Viable cell densities (VCD) ([4]; Time 3.6, TC-42 media of table 2): 0.18
Viable cell densities (VCD) ([4]; Time 3.7, TC-42 media of table 2): 0.30
Viable cell densities (VCD) ([4]; Time 4.7, TC-42 media of table 2): 0.24
Viable cell densities (VCD) ([4]; Time 5.8, TC-42 media of table 2): 0.14
Viable cell densities (VCD) ([4]; Time 6.7, TC-42 media of table 2): 0.08
Viable cell densities (VCD) ([4]; Time 6.8, TC-42 media of table 2): 0.32
Viable cell densities (VCD) ([4]; Time 7.8, TC-42 media of table 2): 0.43
Viable cell densities (VCD) ([4]; Time 8.7, TC-42 media of table 2): 0.41
Viable cell densities (VCD) ([4]; Time 9.7, TC-42 media of table 2): 0.34
Viable cell densities (VCD) ([4]; Time 10.6, TC-42 media of table 2): 0.27
Viable cell densities (VCD) ([4]; Time 11.6, TC-42 media of table 2): 0.79
cell growth performance compared with reference medium (FIG. 1) ([4]; same molar amount of cysteine and cystine in the form of dipeptides): almost no growth

Molecule: L-Alanyl-L-tyrosine × 2H2O [Ala-Tyr]
Solubility Ala-Xxx ([1]; Degussa product brochure, cystine value WO 2011/133902): 15.3 g/1000 g solution
solubility [1]: 8.7 g/ltr
maximum cell densities (max VCD) ([5]; TC-42 media of table 4): 12.44
Viable cell densities (VCD) ([5]; Time [d] 0.0, TC-42 media of table 4): 0.38
Viable cell densities (VCD) ([5]; Time [d] 0.7, TC-42 media of table 4): 0.51
Viable cell densities (VCD) ([5]; Time [d] 1.7, TC-42 media of table 4): 1.22
Viable cell densities (VCD) ([5]; Time [d] 2.7, first entry, TC-42 media of table 4): 2.22
Viable cell densities (VCD) ([5]; Time [d] 2.7, second entry (after transfer into new flask), TC-42 media of table 4): 0.35
Viable cell densities (VCD) ([5]; Time [d] 4.0, TC-42 media of table 4): 0.77
Viable cell densities (VCD) ([5]; Time [d] 4.9, TC-42 media of table 4): 1.59
Viable cell densities (VCD) ([5]; Time [d] 5.7, TC-42 media of table 4): 1.93
Viable cell densities (VCD) ([5]; Time [d] 6.7, first entry, TC-42 media of table 4): 2.82
Viable cell densities (VCD) ([5]; Time [d] 6.7, second entry (after transfer into new flask), TC-42 media of table 4): 0.31
Viable cell densities (VCD) ([5]; Time [d] 7.7, TC-42 media of table 4): 0.48
Viable cell densities (VCD) ([5]; Time [d] 8.7, TC-42 media of table 4): 1.17
Viable cell densities (VCD) ([5]; Time [d] 9.7, TC-42 media of table 4): 1.92
Viable cell densities (VCD) ([5]; Time [d] 11.0, TC-42 media of table 4): 4.11
Viable cell densities (VCD) ([5]; Time [d] 11.8, TC-42 media of table 4): 6.12
Viable cell densities (VCD) ([5]; Time [d] 12.7, TC-42 media of table 4): 8.29
Viable cell densities (VCD) ([5]; Time [d] 13.7, TC-42 media of table 4): 10.49
Viable cell densities (VCD) ([5]; Time [d] 14.7, TC-42 media of table 4): 12.44
Viable cell densities (VCD) ([5]; Time [d] 15.7, TC-42 media of table 4): 11.34
Viable cell densities (VCD) ([5]; Time [d] 16.7, TC-42 media of table 4): 12.42
Viable cell densities (VCD) ([5]; Time [d] 17.9, TC-42 media of table 4): 11.06
Viable cell densities (VCD) ([5]; Time [d] 18.9, TC-42 media of table 4): 11.31
Viable cell densities (VCD) ([5]; Time [d] 19.7, TC-42 media of table 4): 11.20
Viable cell densities (VCD) ([5]; Time [d] 20.7, TC-42 media of table 4): 11.13
Viable cell densities (VCD) ([5]; Time [d] 21.7, TC-42 media of table 4): 11.24
growth curves compared with reference medium (FIG. 2) ([5]; equimolar amounts of tyrosine): no significant difference
maximum cell density compared with reference medium ([5]; equimolar amounts of tyrosine): slightly higher values
